In patent US8017807B2, “Tetrahydroxy compound, method for preparing the tetrahydroxy compound, and photoreceptor using the tetrahydroxy compound” (Ricoh Company Limited, priority 2005, dated 2011):

Key:
[1] = Solubility to alcohol (methanol), visual observation; format: physicochemical; details: background section, no method given
[2] = as above; format: physicochemical; design: key to Solubility to methanol, solid content 5% by weight / Solubility to methanol, solid content 10% by weight / Solubility to methanol, solid content 20% by weight / Solubility to methanol, solid content 30% by weight / Solubility to methanol, solid content 40% by weight / Solubility to methanol, solid content 50% by weight / Solubility to methanol, solid content 60% by weight: ◯: The compound is perfectly dissolved in methanol, and the resultant liquid contains no solid material.; X: The compound is imperfectly dissolved in methanol and the resultant liquid contains a solid material or is opaque (i.e., is not transparent); details: for Solubility to methanol, solid content 5% by weight / Solubility to methanol, solid content 10% by weight / Solubility to methanol, solid content 20% by weight / Solubility to methanol, solid content 30% by weight / Solubility to methanol, solid content 40% by weight / Solubility to methanol, solid content 50% by weight / Solubility to methanol, solid content 60% by weight: methanol solution, one hour at room temperature, visual
Protocol: Each of the compound of Example 1 and comparative compounds (6) to (9) was dissolved in methanol to prepare methanol solutions thereof having a solid content of 5%, 10%, 20%, 30%, 40%, 50% or 60% by weight. Alter the solutions were allowed to settle for one hour at room temperature, the solutions were visually observed to determine the solubility of the compounds to methanol. The solubility to methanol was graded as follows:
◯: The compound is perfectly dissolved in methanol, and the resultant liquid contains no solid material.
X: The compound is imperfectly dissolved in methanol and the resultant liquid contains a solid material or is opaque (i.e., is not transparent).

[3] = Film formability when mixed 1:1 with alcohol-soluble polyamide resin (CM8000), blade-coated layer; format: physicochemical; design: key to Film formability: ◯: The resultant layer is transparent.; X: The resultant layer is opaque due to crystallization of the compounds or bad compatibility with the resin; details: for Film formability: 1:1 by weight with polyamide resin CM8000, solid content 20% by weight, 20 μm layer on aluminum plate, dried at 23° C.; for Film formability (in words): mixed with an alcohol-soluble resin
Protocol: In addition, each of the compound of Example 1 and comparative compounds (6) to (9) was mixed with an alcohol-soluble polyamide resin (CM8000 from Toray Industries, Inc.) in a weight ratio of 1:1 such that the solid content of the mixture is 20% by weight. Each of the mixtures was coated on an aluminum plate by a blade coating method and then dried at room temperature (23° C.) to prepare a layer with a thickness of 20 μm. The thus prepared layers were visually observed to determine the film formability of the layers. The film formability was graded as follows:
◯: The resultant layer is transparent.
X: The resultant layer is opaque due to crystallization of the compounds or bad compatibility with the resin.

[4] = Crosslinked outermost layer of photoreceptor from methanol coating liquid; image formation; details: with methyl trimethoxy silane in methanol
Protocol: Preparation of Crosslinked Charge Transport Layer Using Sol-Gel Method
The following components were mixed.
The mixture was agitated for one hour at room temperature to perform a reaction. Then 53.4 mg of tris(2,4-pentanedionate)aluminum (III) was added to the mixture to prepare a coating liquid including methanol as a solvent.
The coating liquid was coated on the above-prepared charge transport layer by a spray coating method and then dried to form an outermost layer with a thickness of 2 μm. The photoreceptor was heated for 1 hour at 130° C. to crosslink the outermost layer.
The photoreceptor was set in the main body of the image forming apparatus (IMAGIO NEO) to produce images. The resultant images had good image qualities.
The procedure for preparation of the outermost layer in Applied Example 1 was repeated except that the compound of Example 1 was replaced with each of the comparative compounds (6) to (9).

SMILES	Solubility to methanol (present inventors' study of prior-art compounds) [1]	Solubility to methanol (in words) [2]	Solubility to methanol, solid content 5% by weight [2]	Solubility to methanol, solid content 10% by weight [2]	Solubility to methanol, solid content 20% by weight [2]	Solubility to methanol, solid content 30% by weight [2]	Solubility to methanol, solid content 40% by weight [2]	Solubility to methanol, solid content 50% by weight [2]	Solubility to methanol, solid content 60% by weight [2]	Film formability [3]	Preparation of outermost layer coating liquid in methanol [4]	Film formability (in words) [3]
Cc1ccc(N(c2ccc(C)cc2)c2ccc(C(C)(c3ccc(O)cc3)c3ccc(O)cc3)cc2)cc1 [1,1-bis(4-hydroxyphenyl)-1-[4-(paraditolylamino)phenyl]ethane]	insufficient	–	–	–	–	–	–	–	–	–	–	–
Cc1ccc(N(c2ccc(C)cc2)c2ccc(C(C)(c3ccc(O)cc3)c3ccc(O)cc3)cc2)cc1 [Comp. compound (6)]	–	poor solubility to methanol	◯	◯	◯	◯	X	X	X	X	coating liquids could not be prepared	–
Oc1cccc(N(c2ccccc2)c2ccc(-c3ccc(N(c4ccccc4)c4cccc(O)c4)cc3)cc2)c1 [Comp. compound (7)]	–	poor solubility to methanol	◯	◯	◯	X	X	X	X	X	coating liquids could not be prepared	–
CCc1ccc(N(c2ccc(CCO)cc2)c2ccc(CCO)cc2)cc1C [Comp. compound (8)]	–	–	◯	◯	◯	◯	X	X	X	X	coating liquid could be prepared	–
Cc1ccc(N(c2ccc(C)cc2)c2ccc(C=C(c3ccc(OCCO)cc3)c3ccc(OCCO)cc3)cc2)cc1 [Comp. compound (9)]	–	poor solubility to methanol	X	X	X	X	X	X	X	–	coating liquids could not be prepared	–
Cc1ccc(N(c2ccc(C)cc2)c2ccc(C=C(c3ccc(OCC(O)CO)cc3)c3ccc(OCC(O)CO)cc3)cc2)cc1 (stereo not shown) [Compound of Ex. 1, N-{4-[2,2-bis(4-(2,3-dihydroxypropyloxy)phenyl)vinyl]phenyl}-N,N-bis(4-tolyl)amine]	–	good solubility to methanol	◯	◯	◯	◯	◯	◯	◯	◯	–	good film formability
OCC(O)COc1ccc(N(c2ccccc2)c2ccc(-c3ccc(N(c4ccccc4)c4ccc(OCC(O)CO)cc4)cc3)cc2)cc1 (stereo not shown) [Example 2, N,N′-diphenyl-N,N′-bis[4-(2,3-dihydroxypropyloxy)phenyl]benzidine]	–	as good solubility to methanol	–	–	–	–	–	–	–	–	–	as good solubility to methanol and film formability as the compound of Example 1
Oc1cccc(N(c2ccccc2)c2ccc(-c3ccc(N(c4ccccc4)c4cccc(O)c4)cc3)cc2)c1 [N,N′-diphenyl-N,N′-bis(3-hydroxyphenyl)-[1,1′-biphenyl]-4,4′-diamine]	insufficient	–	–	–	–	–	–	–	–	–	–	–
